From patent US12011444B2, “N-substituted indole derivatives as PGE2 receptor modulators” (Idorsia Pharmaceuticals Ltd, priority 2015, dated 2024)

Key:
EP4 = EP4 (Homo sapiens (Human), UniProt P35408); assay: hEP4 cAMP assay (BT549 breast cancer cells, HTRF cAMP); assay type: cell-based
Description: Plate is pre-incubated 45 minutes at room temperature. Subsequently, 2.5 microliters of PGE2 (final conc. 6 nM) are transferred into the assay plate. Plate is incubated 30 minutes at room temperature.

EP2 = EP2 (Homo sapiens (Human), UniProt P43116);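 also: antagonism of PGE2-stimulated cAMP accumulation in SF295 human glioblastoma cells with endogenous EP2, cAMP read by HTRF, expressed relative to DMSO control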
[1] = antagonistic activity, mean values where measured multiple times

Chain of EP2 (P43116 whole entry): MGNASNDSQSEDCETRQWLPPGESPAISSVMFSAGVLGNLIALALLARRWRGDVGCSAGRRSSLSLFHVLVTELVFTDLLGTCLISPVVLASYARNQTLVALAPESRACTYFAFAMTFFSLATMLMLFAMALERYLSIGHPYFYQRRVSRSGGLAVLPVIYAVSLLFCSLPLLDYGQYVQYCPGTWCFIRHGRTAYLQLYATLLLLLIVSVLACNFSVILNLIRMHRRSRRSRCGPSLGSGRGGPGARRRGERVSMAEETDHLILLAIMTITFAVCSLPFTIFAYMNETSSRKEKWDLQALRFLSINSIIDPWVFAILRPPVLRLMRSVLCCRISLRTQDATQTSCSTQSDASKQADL
Chain of EP4 (P35408 whole entry): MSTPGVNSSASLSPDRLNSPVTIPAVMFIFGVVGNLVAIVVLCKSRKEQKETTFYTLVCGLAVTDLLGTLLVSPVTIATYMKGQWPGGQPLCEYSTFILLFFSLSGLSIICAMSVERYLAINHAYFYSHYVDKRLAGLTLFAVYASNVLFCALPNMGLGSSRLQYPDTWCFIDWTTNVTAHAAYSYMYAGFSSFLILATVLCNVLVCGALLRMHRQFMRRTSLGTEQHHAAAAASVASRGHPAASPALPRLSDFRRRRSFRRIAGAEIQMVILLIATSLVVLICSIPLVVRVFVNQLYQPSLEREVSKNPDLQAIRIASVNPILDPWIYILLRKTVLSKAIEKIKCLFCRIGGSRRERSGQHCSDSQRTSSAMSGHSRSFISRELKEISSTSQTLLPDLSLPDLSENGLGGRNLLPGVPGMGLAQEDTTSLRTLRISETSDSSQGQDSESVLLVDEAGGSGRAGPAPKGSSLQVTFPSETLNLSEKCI

IC50 (EP4; [1]) [nM]	IC50 (EP2) [nM]	IC50 (EP4; (*): measured using the cAMP assay) [nM]	SMILES
583	37		Cc1ccc(F)c2c1cc(C)n2CCNc1cc(-c2ccc(C(=O)O)c(OC(F)(F)F)c2)ncn1 [compound 508]
117	1		CCCCOc1cc(-c2cc(NCCn3c(C)cc4c(OC)cccc43)ncn2)ccc1C(=O)O [compound 484]
64	17		CCCc1cc(-c2cc(NCCn3c(C)cc4c(OC)cc(F)cc43)ncn2)cc(F)c1C(=O)O [compound 521]
318	3		COc1cc(-c2cc(NCCn3c(C)cc4c(F)ccc(F)c43)ncn2)ccc1-c1nnn[nH]1 [Example 747, [2-(4,7-Difluoro-2-methyl-indol-1-yl)-ethyl]-{6-[3-methoxy-4-(1H-tetrazol-5-yl)-phenyl]-pyrimidin-4-yl}-amine]
233	127		Cc1ccc(F)c2c1cc(C)n2CCNc1cc(-c2ccc(C(=O)O)c(NS(C)(=O)=O)c2)ncn1 [compound 479]
952	60		CCOc1cc(-c2cc(NCCn3c(C)cc4c(OC)ccc(Cl)c43)ncn2)cc(CC)c1C(=O)O [compound 617]
826	6		CCOc1cc(-c2cc(NCCn3c(C)cc4c(Br)cccc43)ncn2)ccc1C(=O)O [Example 780, 4-{6-[2-(4-Bromo-2-methyl-indol-1-yl)-ethylamino]-pyrimidin-4-yl}-2-ethoxy-benzoic acid]
302	146		Cc1nc(CCC(=O)O)oc1-c1ccc(-c2cc(NCCn3c(C)cc4c(C)cc(F)cc43)ncn2)cc1 [compound 647]
768	13		COc1cccc2c1cc(C)n2CCNc1cc(-c2ccc(C(=O)O)c(Oc3ccc(F)cc3)c2)ncn1 [compound 649]
28	23		CCNC(=O)Nc1ccc(-c2cc(NCCn3c(C)cc4c(OC)ccc(F)c43)ncn2)cc1OC [compound 555, 1-Ethyl-3-(4-{6-[2-(7-fluoro-4-methoxy-2-methyl-indol-1-yl)-ethylamino]-pyrimidin-4-yl}-2-methoxy-phenyl)-urea]
146	4		CCNc1cc(-c2cc(NCCn3c(C)cc4c5c(cc(Cl)c43)OCO5)ncn2)ccc1C(=O)O [compound 460, 4-{6-[2-(5-Chloro-7-methyl-[1,3]dioxolo[4,5-e]indol-6-yl)-ethylamino]-pyrimidin-4-yl}-2-ethylamino-benzoic acid]
118	114		Cc1cc(F)c(F)c2c1cc(C)n2CCNc1cc(-c2ccc(-c3cnc(N)o3)cc2)ncn1 [compound 577]
893	195		Cc1nc(CCC(=O)O)oc1-c1ccc(-c2cc(NCCn3c(C)cc4c(C)ccc(F)c43)ncn2)cc1 [compound 648]
88	9		CCOc1cc(-c2cc(NCCn3c(C)cc4c(C)c(F)cc(F)c43)ncn2)ccc1C(=O)O [compound 430]
81	22		COc1ccc(F)c2c1cc(C)n2CCNc1cc(-c2ccc(C(=O)O)c(CC(C)C)c2)ncn1 [compound 537]
128	20		CCOc1cc(-c2cc(NCCn3c(C)cc4c(OC)cc(F)cc43)ncn2)ccc1C(=O)O [compound 403]
355	399		Cc1cc(F)c(F)c2c1cc(C)n2CCNc1cc(-c2ccc(-c3cncn3C)cc2)ncn1 [compound 576]
	24	15	CCOc1cc(-c2cc(NCCn3c(C#N)cc4c(OC)ccc(F)c43)ncn2)sc1C(=O)NS(=O)(=O)C1CC1 [Example 816, Cyclopropanesuifonic acid (5-{6-[2-(2-cyano-7-fluoro-4-methoxy-indol-1-yl)-ethylamino]-pyrimidin-4-yl}-3-ethoxy-thiophene-2-carbonyl)-amide]
159	13		CCOc1cc(-c2cc(NCCn3c(C)cc4c(C)ccc(F)c43)ncn2)cc(F)c1C(=O)O [compound 435]
95	20		COc1cc(Cl)cc2c1cc(C)n2CCNc1cc(-c2ccc(-c3noc(=O)[nH]3)cc2)ncn1 [compound 679, 3-(4-{6-[2-(6-Chloro-4-methoxy-2-methyl-indol-1-yl)-ethylamino]-pyrimidin-4-yl}-phenyl)-4H-[1,2,4]oxadiazol-5-one]
191	152		COc1cc(F)c(F)c2c1cc(C)n2CCNc1cc(-c2ccc(-c3oc(CCC(=O)O)nc3C)cc2)ncn1 [compound 655]
443	93		Cc1ccc(F)c2c1cc(C)n2CCNc1cc(-c2ccc(C(=O)O)c(Oc3ccc(F)cc3)c2)ncn1 [compound 650]

IC50 (EP4; [1]) [nM]	IC50 (EP2) [nM]	IC50 (EP4; (*): measured using the cAMP assay) [nM]	SMILES
906	13		COc1cccc2c1cc(C)n2CCNc1cc(-c2ccc(-c3csc(CC(N)=O)n3)cc2)ncn1 [Example 785, 2-[4-(4-{6-[2-(4-Methoxy-2-methyl-indol-1-yl)-ethylamino]-pyrimidin-4-yl}-phenyl)-thiazol-2-yl]-acetamide]
251	12		Cc1cc2c(F)c(F)cc(F)c2n1CCNc1cc(-c2ccc(-c3noc(=O)[nH]3)cc2)ncn1 [compound 682, 3-(4-{6-[2-(4,5,7-Trifluoro-2-methyl-indol-1-yl)-ethylamino]-pyrimidin-4-yl}-phenyl)-4H-[1,2,4]oxadiazol-5-one]
164	11		COc1cccc2c1cc(C)n2CCNc1cc(-c2ccc(C(=O)O)c(CC(C)C)c2)ncn1 [compound 428]
151	119		COc1cc(F)cc2c1cc(C)n2CCNc1cc(-c2ccc(C(=O)O)c(C(C)(C)C)c2)ncn1 [compound 528]
229	33		CCCN1Cc2cc(-c3cc(NCCn4c(C)cc5c(OC)ccc(F)c54)ncn3)ccc2C1=O [compound 466, 5-{6-[2-(7-Fluoro-4-methoxy-2-methyl-indol-1-yl)-ethylamino]-pyrimidin-4-yl}-2-propyl-2,3-dihydro-isoindol-1-one]
373	15		COc1ccc(F)c2c1cc(C)n2CCNc1cc(-c2ccc(C(=O)CC#N)cc2)ncn1 [compound 710, 3-(4-{6-[2-(7-Fluoro-4-methoxy-2-methyl-indol-1-yl)-ethylamino]-pyrimidin-4-yl}-phenyl)-3-oxo-propionitrile]
79	36		CCCc1cc(-c2cc(NCCn3c(C)cc4c(C)cc(F)cc43)ncn2)cc(Cl)c1C(=O)O [compound 412]
208	33		COc1ccc(F)c2c1cc(C)n2CCNc1cc(-c2ccc(-c3nnc(C)o3)cc2)ncn1 [compound 574]
69	42		Cc1c(F)cc(F)c2c1cc(C)n2CCNc1cc(-c2ccc(C(=O)O)c(CC(C)C)c2)ncn1 [compound 501]
192	102		Cc1nnc(-c2ccc(-c3cc(NCCn4c(C)cc5c(C)ccc(F)c54)ncn3)cc2)o1 [compound 553]
418	6		CCCOc1cc(-c2cc(NCCn3c(C)cc4c(OC)cccc43)ncn2)ccc1C(=O)O [compound 400]
161	50		COc1cc(F)cc2c1cc(C)n2CCNc1cc(-c2ccc(-c3cncn3C)cc2)ncn1 [compound 582]
50	21		COc1cc(F)cc2c1cc(C)n2CCNc1cc(-c2ccc(C(=O)O)c(CC(C)C)c2)ncn1 [compound 530]
739	62		COc1ccc(F)c2c1cc(C)n2CCNc1cc(-c2ccc(-n3nc(C)cc3C)cc2)ncn1 [compound 459]
54	6		CCNc1cc(-c2cc(NCCn3c(C)cc4c5c(cc(Cl)c43)OCO5)ncn2)ccc1-c1nnn[nH]1 [compound 659, [2-(5-Chloro-7-methyl-[1,3]dioxolo[4,5-e]indol-6-yl)-ethyl]-{6-[3-ethylamino-4-(1H-tetrazol-5-yl)-phenyl]-pyrimidin-4-yl}-amine]
389	223		Cc1cnoc1-c1ccc(-c2cc(NCCn3c(C)cc4c(C)cc(F)c(F)c43)ncn2)cc1 [compound 719]
79	21		Cc1ccc(F)c2c1cc(C)n2CCNc1cc(-c2ccc3[nH]ccc3c2)ncn1 [compound 698, [2-(7-Fluoro-2,4-dimethyl-indol-1-yl)-ethyl]-[6-(1H-indol-5-yl)-pyrimidin-4-yl]-amine]
399	39		COc1cc(F)cc2c1cc(C)n2CCNc1cc(-c2ccc(-c3oncc3C)cc2)ncn1 [compound 736, [2-(6-Fluoro-4-methoxy-2-methyl-indol-1-yl)-ethyl]-{6-[4-(4-methyl-isoxazol-5-yl)-phenyl]-pyrimidin-4-yl}-amine]
24	15		COc1cc(F)c(F)c2c1cc(C)n2CCNc1cc(-c2ccc3[nH]ccc3c2)ncn1 [compound 701, [2-(6,7-Difluoro-4-methoxy-2-methyl-indol-1-yl)-ethyl]-[6-(1H-indol-5-yl)-pyrimidin-4-yl]-amine]
101	42		CCOC(=O)c1sc(-c2cc(NCCn3c(C)cc4c(OC)ccc(F)c43)ncn2)cc1OCC [Example 790, 3-Ethoxy-5-{6-[2-(7-fluoro-4-methoxy-2-methyl-indol-1-yl)-ethylamino]-pyrimidin-4-yl}-thiophene-2-carboxylic acid ethyl ester]
89	52		CCOc1cc(-c2cc(NCCn3c(C)cc4c(OC)cc(F)c(F)c43)ncn2)cc(F)c1-c1nnn[nH]1 [compound 656]
177	4		COc1cccc2c1cc(C)n2CCNc1cc(-c2cc(Cl)c(C(=O)O)c(OCC(C)C)c2)ncn1 [compound 691]

SMILES	IC50 (EP4; [1]) [nM]	IC50 (EP2) [nM]	IC50 (EP4; (*): measured using the cAMP assay) [nM]
COc1ccc(F)c2c1cc(C)n2CCNc1cc(-c2ccc(C(=O)O)c(OC3CCC3)c2)ncn1 [compound 472, 2-Cyclobutoxy-4-{6-[2-(7-fluoro-4-methoxy-2-methyl-indol-1-yl)-ethylamino]-pyrimidin-4-yl}-benzoic acid]	66	5	
